Results from paper PMC10096391, “Discovery of N,4-Di(1H-pyrazol-4-yl)pyrimidin-2-amine-Derived CDK2 Inhibitors as Potential Anticancer Agents: Design, Synthesis, and Evaluation” (Molecules, 2023).

Experiments:
A2780 cells [1] = assay: Colony formation (crystal violet), A2780; assay type: cell-based; conditions: A2780, 10 days; 15 at 0.5 and 2 µM, CYC065 at 0.5 µM
Protocol: (§1) Briefly, ovarian cancer cells (i.e., A2780, OVCAR5, and OV90) seeded in six-well plates were adhered for 6 h and treated with 15. The medium that contained the compound was then changed every 72 h. Ten days after treatment, the cells were washed with PBS, fixed, and stained with crystal violet staining solution (0.05% crystal violet, 1% formaldehyde, 1% PBS, and 1% ethanol), and colonies were quantified using ImageJ software (National Institute of Health, Maryland, USA), with data presented as percentages of the control cells.

OVCAR5 cells [2] = assay: Cell cycle analysis by flow cytometry, OVCAR5; assay type: cell-based; conditions: OVCAR5, 0.5 µM, 48 h
Protocol: (§2) The effect of the compounds on cell cycle distribution was evaluated following a previously reported method. Briefly, six-well plates (Sigma-Aldrich, NSW, Australia) were seeded with about 1–2 × 10^5 cells/well in 2 mL growth medium, incubated at 37 °C and 5% CO2 overnight, and treated with various concentrations of the test compounds and incubated for 48 h. The wells were collected by trypsinization, transferred into fluorescence-activating cell sorting (FACS) tubes, washed with 1 × phosphate-buffered saline (1 × PBS) twice, fixed in 70% (v/v) ice-cold ethanol for 15 min, and centrifuged at 300× g for 5 min. The cell pellets were then collected, stained with 200 µL of the cell cycle solution (comprising 50.0 μg/mL PI, 0.1 mg/mL RNase A, and 0.05% Triton X-100), and incubated for 1.5 h at room temperature in the dark. Finally, the DNA content was determined by a flow cytometer (CytoFLEX) and analyzed by CytExpert 2.1 software (Beckman Coulter, Brea, CA, USA).

OVCAR5 cells [3] = assay: Colony formation (crystal violet), OVCAR5; assay type: cell-based; conditions: OVCAR5, 10 days; 15 at 0.5 and 2 µM, CYC065 at 0.5 µM
Protocol: as §1

OVCAR5 cells [4] = assay: Annexin V/PI apoptosis assay, OVCAR5; assay type: cell-based; conditions: OVCAR5, 0.5 µM, 48 h
Protocol: (§3) Annexin V-fluorescein isothiocyanate (FITC) apoptosis detection kit I (consisting of a ten-time stock solution of binding buffer, FITC–annexin V, and PI staining solution) was used to determine the effect of the compounds on cancer cell survival as previously reported. Briefly, six-well plates (Sigma-Aldrich, NSW, Australia) were seeded with about 1–2 × 10^5 cells/well in 2 mL growth medium, incubated at 37 °C and 5% CO2 overnight, treated with various concentrations of the test compounds, and incubated for 48 h. The wells were collected by trypsinization, transferred into FACS tubes, washed twice with 1 × PBS, and centrifuged at 300× g for 5 min. The pellets were then suspended in 100 µL of 1 × binding buffer and incubated in the dark with 3 µL of PI and 3 µL of FITC-conjugated annexin V solutions for 15 min. Finally, 200 µL of binding buffer was added to each sample and analyzed by the CytoFLEX cytometer. The extent of apoptotic cell death was quantified as the sum of the percentages of early apoptotic cells (annexin V-positive and PI-negative) and late apoptotic cells (both annexin–V- and PI-positive) and presented graphically as a contour diagram relative to the untreated control.

OV90 cells = assay: Colony formation (crystal violet), OV90; assay type: cell-based; conditions: OV90, 10 days; 15 at 0.5 and 2 µM, CYC065 at 0.5 µM
Protocol: as §1

A2780 cells [5] = assay: Cell cycle analysis by flow cytometry, A2780; assay type: cell-based; conditions: A2780, 0.5 µM, 48 h
Protocol: as §2

A2780 cells [6] = assay: Annexin V/PI apoptosis assay, A2780; assay type: cell-based; conditions: A2780, 0.5 µM, 48 h
Protocol: as §3

CDK1/cyclin B (CDK1B) = CDK1/cyclin B (CDK1B) (Homo sapiens, UniProt P06493); design: method as in PMID 36706608; conditions: previously reported data for 1; cited from earlier work
CDK5/p25 (CDK5p25) = CDK5/p25 (CDK5p25) (Homo sapiens, UniProt Q00535); design: method as in PMID 36706608; conditions: previously reported data for 1; cited from earlier work
CDK9/cyclin T1 (CDK9T1) = CDK9/cyclin T1 (CDK9T1) (Homo sapiens, UniProt P50750); design: method as in PMID 36706608; conditions: previously reported data for 1; cited from earlier work
[7] = system: A2780 ovarian cancer cells; design: method as in PMID 36706608; conditions: previously reported data for 1; cited from earlier work
CDK2/cyclin E (CDK2E) = CDK2/cyclin E (CDK2E) (Homo sapiens, UniProt P24941); design: method as in PMID 36706608; conditions: previously reported data for 1; cited from earlier work

Sequence of CDK1/cyclin B (CDK1B) (P06493 whole entry): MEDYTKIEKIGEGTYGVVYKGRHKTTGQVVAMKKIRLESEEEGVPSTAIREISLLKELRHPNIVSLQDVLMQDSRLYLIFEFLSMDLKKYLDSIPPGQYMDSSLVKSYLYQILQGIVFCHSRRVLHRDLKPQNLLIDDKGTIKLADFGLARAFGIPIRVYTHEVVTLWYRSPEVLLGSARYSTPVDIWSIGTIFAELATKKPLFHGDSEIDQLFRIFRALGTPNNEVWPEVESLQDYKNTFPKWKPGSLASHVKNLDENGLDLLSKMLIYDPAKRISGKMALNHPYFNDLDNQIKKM
Sequence of CDK1/cyclin B (CDK1B) (P14635 whole entry partner): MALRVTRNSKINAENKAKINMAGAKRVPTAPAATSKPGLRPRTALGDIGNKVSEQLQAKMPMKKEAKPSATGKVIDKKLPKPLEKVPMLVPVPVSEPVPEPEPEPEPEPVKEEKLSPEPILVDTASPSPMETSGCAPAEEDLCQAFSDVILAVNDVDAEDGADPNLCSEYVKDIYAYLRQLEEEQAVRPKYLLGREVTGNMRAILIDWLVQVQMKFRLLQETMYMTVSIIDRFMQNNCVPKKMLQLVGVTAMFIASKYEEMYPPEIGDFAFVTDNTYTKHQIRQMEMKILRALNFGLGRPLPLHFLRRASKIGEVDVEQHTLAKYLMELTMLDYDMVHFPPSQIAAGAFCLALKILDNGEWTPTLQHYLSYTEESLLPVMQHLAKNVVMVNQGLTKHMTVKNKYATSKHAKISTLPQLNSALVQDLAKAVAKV
Sequence of CDK5/p25 (CDK5p25) (Q00535 whole entry): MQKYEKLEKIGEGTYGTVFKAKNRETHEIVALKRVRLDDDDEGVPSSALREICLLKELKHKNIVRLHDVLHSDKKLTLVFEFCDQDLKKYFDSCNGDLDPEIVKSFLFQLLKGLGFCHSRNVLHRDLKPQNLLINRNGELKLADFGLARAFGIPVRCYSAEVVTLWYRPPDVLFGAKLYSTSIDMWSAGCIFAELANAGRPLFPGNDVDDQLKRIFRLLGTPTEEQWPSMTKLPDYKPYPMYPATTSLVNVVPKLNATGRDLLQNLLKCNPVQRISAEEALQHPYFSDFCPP
Sequence of CDK5/p25 (CDK5p25) (Q15078 99-307 partner limits assumed): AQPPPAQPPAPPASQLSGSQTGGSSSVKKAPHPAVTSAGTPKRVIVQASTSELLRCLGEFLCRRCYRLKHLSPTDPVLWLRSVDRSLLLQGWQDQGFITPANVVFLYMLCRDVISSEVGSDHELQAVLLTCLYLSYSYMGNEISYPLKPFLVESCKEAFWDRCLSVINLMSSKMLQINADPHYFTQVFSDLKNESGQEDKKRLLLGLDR
Sequence of CDK9/cyclin T1 (CDK9T1) (P50750 whole entry): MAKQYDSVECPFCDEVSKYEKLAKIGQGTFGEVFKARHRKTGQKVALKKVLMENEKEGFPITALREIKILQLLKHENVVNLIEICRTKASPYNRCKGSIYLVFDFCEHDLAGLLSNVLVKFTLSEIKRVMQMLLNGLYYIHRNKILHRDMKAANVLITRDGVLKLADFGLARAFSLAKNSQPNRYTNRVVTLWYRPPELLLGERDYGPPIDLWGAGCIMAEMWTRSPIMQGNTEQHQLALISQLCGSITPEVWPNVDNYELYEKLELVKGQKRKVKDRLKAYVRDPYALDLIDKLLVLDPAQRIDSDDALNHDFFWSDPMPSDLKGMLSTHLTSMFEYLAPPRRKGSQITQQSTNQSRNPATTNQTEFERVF
Sequence of CDK9/cyclin T1 (CDK9T1) (O60563 whole entry partner): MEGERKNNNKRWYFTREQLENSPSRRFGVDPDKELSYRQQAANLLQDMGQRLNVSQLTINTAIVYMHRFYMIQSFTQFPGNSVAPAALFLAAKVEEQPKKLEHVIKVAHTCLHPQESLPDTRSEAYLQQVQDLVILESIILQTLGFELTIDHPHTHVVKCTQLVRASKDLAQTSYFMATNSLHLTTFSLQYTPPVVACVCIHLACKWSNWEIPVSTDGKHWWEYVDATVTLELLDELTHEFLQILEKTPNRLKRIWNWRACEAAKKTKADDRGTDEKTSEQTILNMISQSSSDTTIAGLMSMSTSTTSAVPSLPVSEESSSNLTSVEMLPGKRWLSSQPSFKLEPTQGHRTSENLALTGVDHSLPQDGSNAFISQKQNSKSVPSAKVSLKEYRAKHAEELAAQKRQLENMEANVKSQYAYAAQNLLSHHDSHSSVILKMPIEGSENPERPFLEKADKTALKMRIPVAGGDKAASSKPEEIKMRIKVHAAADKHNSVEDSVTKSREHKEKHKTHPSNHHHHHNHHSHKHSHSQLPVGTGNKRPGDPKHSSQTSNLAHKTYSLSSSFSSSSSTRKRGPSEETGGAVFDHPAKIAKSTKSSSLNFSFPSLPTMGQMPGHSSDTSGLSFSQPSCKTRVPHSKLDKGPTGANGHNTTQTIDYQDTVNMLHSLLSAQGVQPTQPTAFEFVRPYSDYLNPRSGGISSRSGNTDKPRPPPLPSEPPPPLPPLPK

Compound	effect on colony formation (A2780 cells [1])	increment in the subpopulation of G2/M cells compared to the vehicle control (OVCAR5 cells [2])	effect on colony formation (OVCAR5 cells [3])	viability at 0.5 µM (OVCAR5 cells [4]; Homo sapiens, OVCAR-5, read-out: Q1-LL, viable cells)	apoptosis (annexin V positive, early + late) (OVCAR5 cells [4])	effect on colony formation (OV90 cells)	S-phase cells (A2780 cells [5])	Sub-G1 cells (A2780 cells [5])	apoptosis (annexin V positive, early + late) (A2780 cells [6])	viability at 0.5 µM (A2780 cells [6]; Homo sapiens, read-out: Q1-LL, viable cells)	Ki (CDK1/cyclin B (CDK1B))	Ki (CDK5/p25 (CDK5p25))	Ki (CDK9/cyclin T1 (CDK9T1))	GI50 [7]	Ki (CDK2/cyclin E (CDK2E))
CC[C@H](Nc1nc(NCc2cnc(C)cc2C)c2ncn(C(C)C)c2n1)[C@@H](C)O [CYC065, reference compound]	reduced	12%	lowest effect	81.9%	16%	reduced	24%	27%	73%	26%					
Cn1cc(-c2nc(Nc3cccc(S(N)(=O)=O)c3)ncc2F)cn1 [Compound 1, 3-((5-fluoro-4-(1-methyl-1H-pyrazol-4-yl)pyrimidin-2-yl)amino)benzenesulfonamide]											5 nM	77 nM	26 nM	18 nM	23 nM
